According to the METLIN SMRT retention time set (Domingo-Almenara et al. 2019):

Experiment: gradient 5% acetonitrile 3 min, to 50% in 2 min, to 85% in 15 min, held 3 min, 100 µL/min
Settings: column: Zorbax Extend-C18 2.1 x 50 mm; eluents: water / acetonitrile, 0.1% formic acid
Outline: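 Mixtures of ~100 pure standards were chromatographed on a Zorbax Extend-C18 column (2.1 × 50 mm, 1.8 μm) at 100 μL/min using water and acetonitrile, each with 0.1% formic acid. Detection used a quadrupole time-of-flight mass spectrometer in positive and negative ionization mode, and data collection spanned 3 months. Retention time was obtained from adduct peaks picked computationally and each checked manually.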

RP-LC retention time | Compound
784 s | CCN1C(=O)c2cccnc2Sc2cc(CNC(=O)c3c(OC)cccc3OC)ccc21
850 s | O=C(Nc1cccc(Cl)c1)C1CCN(S(=O)(=O)c2cc(C(=O)N3CCOCC3)cs2)CC1
785 s | COc1ccc(C(CC(=O)N2CCCCCC2)N2Cc3ccccc3C2=O)cc1OC (stereo not drawn)
876 s | O=C(CN1C(=O)CC(c2cccs2)=Nc2ccccc21)NCc1ccccc1
656 s | O=C(NCCC1=CCCCC1)C1CCN(c2cncnc2N2CCOCC2)CC1
1020 s | CCn1ccc2oc(C)c(C(=O)NCc3ccccc3Br)c2c1=O
685 s | COc1ccc(-c2cc(N3CCN(C(=O)Nc4cc(OC)ccc4OC)CC3)ncn2)cc1
609 s | Cc1ccc(Nc2nc(C(=O)NCc3cccnc3)nc3ccccc23)cc1
628 s | O=C(Cn1c(-c2cccnc2)nc2ccccc21)Nc1nccs1
743 s | C=CCn1c(SCC(=O)OCC)nnc1-c1ccc([N+](=O)[O-])cc1
865 s | Cc1noc2ncnc(N3CCC(C(=O)N4CCCc5ccccc54)CC3)c12
839 s | Cn1cccc1C(=O)N1CCN(C(=O)c2nnn3c2COC(c2ccc(Cl)cc2)C3)CC1 (stereo not drawn)
1070 s | COC(=O)c1sccc1NC(=O)Cn1c(C)cc(C)c(-c2nc(-c3ccc(F)cc3)no2)c1=O
815 s | COc1ccccc1NC(=O)c1c(NC(=O)C(C)C)sc2c1CCC2
677 s | O=C(Cc1cccc(F)c1)N1CCCCC1c1nncn1CC1CC1 (stereo not drawn)
841 s | COc1ccc(-c2cn3c(CC(=O)Nc4cccc(C(F)(F)F)c4)csc3n2)cc1OC
558 s | Cc1c(C(=O)NCCCN2CCOCC2)sc2ncnc(N3CCN(c4ccccn4)CC3)c12
551 s | O=C(c1ccccn1)N1CCN(c2cc(-c3ccccc3)ncn2)CC1
1100 s | CCOc1ccc(C2Cn3nnc(-c4nc(-c5ccccc5F)no4)c3CO2)cc1 (stereo not drawn)
595 s | O=c1ccc(-c2ccc(S(=O)(=O)N3CCN(c4ccccn4)CC3)s2)n[nH]1
720 s | Cc1[nH]c(C)c(S(=O)(=O)N2CCC(C(=O)Nc3ccccc3F)CC2)c1C(=O)N1CCCC1
883 s | Cc1ccc(CNc2ccc3nnc(C4CCC4)n3n2)o1

RP-LC retention time | Compound
846 s | COc1cc(NC(=O)C2CCN(C(=O)c3ncn4c3COC(c3ccccc3)C4)CC2)cc(OC)c1 (stereo not drawn)
575 s | CN1CCN(CCCNc2nnc(-c3nc(-c4ccc(F)cc4)no3)c3ccccc23)CC1
702 s | O=C(NCc1ccccc1)Nc1cccn2ncnc12
556 s | O=C(C1CCN(c2cncnc2N2CCOCC2)CC1)N1CCOCC1
721 s | COc1ccc(S(=O)(=O)Nc2cc(N3CCCS3(=O)=O)ccc2OC)cc1F
952 s | COc1cccc(-c2noc(Cn3c(=O)n(-c4ccc(F)cc4)c(=O)c4sccc43)n2)c1
789 s | Cc1ccc(C)c(NC(=O)CN2CCN(C(=O)Nc3ccc(Br)cc3)CC2=O)c1
794 s | COc1ccc(C2(C(=O)N3CCOc4ccc(N5CCOCC5)cc4C3)CC2)cc1
713 s | CCOc1ccccc1N1CCN(C(=O)C2CCCN(c3nccc4sc(C)cc34)C2)CC1 (stereo not drawn)
736 s | COc1ccccc1CNC(=O)C1CCCN(C(=O)C2Sc3ccccc3NC2=O)C1 (stereo not drawn)
841 s | O=C(Cc1csc2nc(-c3ccccc3)cn12)NCCCc1ccccc1
668 s | CCc1ccc(NC(=O)Cn2c(C)nc3cc4c(cc32)OCCO4)cc1
610 s | Cc1nnc2c(=O)n(CC(=O)NCC3CC3)c3cccnc3n12
700 s | Cc1cc(C)n2nc(SCC(=O)Nc3ccccc3)nc2n1
870 s | CC(C)CNC(=O)CCn1c(=O)c2ccccc2n2c(=O)n(Cc3ccc(F)cc3)nc12
589 s | Cc1cnc(C2CNC2)n1Cc1ccccc1
844 s | CC(C)CN1C(=O)CCc2cc(NS(=O)(=O)c3ccccc3)ccc21
968 s | COc1ccccc1-c1noc(C2CCCN2C(=O)c2cc(F)ccc2F)n1 (stereo not drawn)
1030 s | CCN(Cc1ccccc1)c1ccc(-c2noc(CN3CCSCC3)n2)cn1
836 s | COc1ccc(NC(=O)c2cnc3c(c2)c(=O)n(C)c(=O)n3-c2ccc(C)cc2)cc1OC
593 s | O=C(NCc1ccccn1)C1CCN(c2ncnc3c2oc2ccccc23)CC1
544 s | Cc1csc2nc(CNS(=O)(=O)c3cccnc3)cn12

RP-LC retention time | Compound
862 s | Cc1ccc2c(c1)N(S(C)(=O)=O)CCC(C(=O)N1CCCCC1)O2 (stereo not drawn)
864 s | Cn1nccc1C(=O)Nc1ccc(OCc2nnc(-c3ccc(Cl)cc3)o2)cc1
841 s | CC1(C)CC(=O)c2c(nc(N3CCN(c4ccccn4)CC3)nc2Nc2ccccc2)C1
628 s | Cc1c(C(=O)NCCCN2CCC(C)CC2)sc2ncn(CC(=O)N3CCCCC3C)c(=O)c12 (stereo not drawn)
922 s | O=C(Cn1cnc2c(-c3ccc(Cl)cc3)csc2c1=O)N1CCCCC1
1260 s | CCCCc1ccc(NC(=O)Cn2cccc2-c2nc(-c3ccc4c(c3)OCO4)no2)cc1
888 s | Cc1nc(N2CCN(c3ccc(F)cc3)CC2)ncc1C(=O)O
887 s | COc1cc(NC(=O)c2ccccc2)c(OC)cc1NC(=O)C=C(C)C
1010 s | Cc1nc(-c2csc(S(=O)(=O)N3CCCC(C(=O)Nc4ccc(F)c(Cl)c4)C3)c2)no1 (stereo not drawn)
798 s | CC(C)(C)n1nnnc1C1CC2(CCOCC2)C(=O)N1Cc1ccc(F)cc1 (stereo not drawn)
758 s | CCCc1cc(N2CCN(c3ccccn3)CC2)n2nc(C)c(-c3ccccc3)c2n1
785 s | CN1C(=O)c2cc(C(=O)NCc3ccccc3F)nn2CC1(C)C(=O)NC1CCCCC1 (stereo not drawn)
982 s | Cc1ccccc1CNC(=O)c1cn(-c2cc(-c3nc(C4CC4)no3)ccn2)cn1
870 s | CC(C)(C)c1ccc(OCC(=O)Nc2ccc(CC(=O)N3CCOCC3)cc2)cc1
935 s | COc1ccc(OC)c(NC(=O)c2nc(C)oc2C)c1
757 s | Cc1ccc(CNC(=O)c2cccc(CN3C(=O)C4CCCN4C(=O)c4ccccc43)c2)o1 (stereo not drawn)
930 s | O=c1c(=O)n(Cc2nc(-c3cccc(F)c3)no2)ccn1Cc1ccc(Cl)cc1
1190 s | Cc1ccc(-c2csc(-n3nc(C)c(CC(=O)Nc4c(C)cccc4C)c3C)n2)cc1
771 s | CCc1ccc(CNC(=O)C2(CC)CCCCC(=O)N2)cc1 (stereo not drawn)
928 s | Cn1nc(-c2nnc(-c3ccccc3F)o2)c2c1CCN(S(=O)(=O)c1cc(F)ccc1F)C2
904 s | Cc1ccc(CNC(=O)Cn2cccc2-c2nnc(C3CCC3)o2)cc1
707 s | COc1ccccc1OCCNC(=O)C1CCN(c2nnc3ccc(Cl)cn23)CC1

RP-LC retention time | Compound
609 s | COCC1CN(S(=O)(=O)c2cccc(C#N)c2)CC12CCNCC2 (stereo not drawn)
851 s | Cc1ccc(Nc2nc(C)cc(N3CCN(S(=O)(=O)c4ccc(C(F)(F)F)cc4)CC3)n2)cc1
923 s | O=C(c1noc2c1CCCC2)N1CCc2ccccc2C1
688 s | Cc1cc(C)cc(C(=O)NC(C)C(=O)Nc2nc3ccccc3[nH]2)c1 (stereo not drawn)
757 s | COc1ccc(-c2nc3cccc(C)n3c2Nc2ccc(C)cc2)cc1
839 s | O=C(N1CCCC(c2nnnn2-c2ccccc2)C1)C1(c2ccccc2)CC1 (stereo not drawn)
566 s | CCn1ccc2sc(C)c(C(=O)N3CCC(N4CCCCC4)CC3)c2c1=O
970 s | COc1ccc(Cn2c(=O)c3sccc3n(Cc3nc(-c4ccccc4OC)no3)c2=O)cc1
790 s | Cc1ccc(NC(=O)N2CCC(n3cnc4ccc(F)cc4c3=O)CC2)c(C)c1
1120 s | COc1ccc2c(c1)c1ccc3c(c1n2C)C(=O)C=CC3=O
1050 s | O=C(Nc1ccc(CN2CCCCC2)cc1)C1CCCN(c2ncnc3c2nc2n3CCCCC2)C1 (stereo not drawn)
714 s | CCCCCC[C@@H]([C@@H](C)O)n1cnc2c(N)ncnc21
1010 s | CC(C)CC(NC(=O)OCc1ccccc1)C(=O)NC(Cc1ccccc1)C(=O)CCl (stereo not drawn)
770 s | CC(=O)c1cccc(S(=O)(=O)NC(C)Cc2ccco2)c1 (stereo not drawn)
890 s | O=C(CSc1nnc2c3sc(N4CCCC4)nc3ncn12)Nc1ccc(F)c(Cl)c1
995 s | Cn1nccc1C(=O)N1CCc2c([nH]c3ccccc23)C1c1ccc(F)cc1 (stereo not drawn)
608 s | COc1nccnc1NC1CCN(C(=O)c2ccnn2C)CC1
890 s | CCCn1cc(S(=O)(=O)NCc2ccccc2OC)c2cccnc21
1160 s | Cc1nc(-c2cccc(F)c2)sc1CCNC(=O)C(=O)Nc1ccccc1Cl
835 s | Cc1ccc(NC(=O)C2CCN(S(=O)(=O)c3cc(C(=O)N(C)C)cs3)CC2)cc1C

Compound | RP-LC retention time
Cc1cc(OCC(=O)N[C@H](C(=O)O)C(C)C)c2c3c(c(=O)oc2c1)CCC3 | 788 s
COc1ccc2c(c1)C1(CCN(S(=O)(=O)c3cc(F)ccc3C)C1)C(=O)N2C (stereo not drawn) | 997 s
